Measurements as given in PubChem BioAssay (NCI).
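Growth conditions: 96-well plates. Treatment: test compound, 48 hours, 5 concentrations. Analysis: linear interpolation between bracketing concentrations; unreached endpoints set to highest concentration. GI50 is the concentration that inhibits growth by half. The concentration for full growth arrest is given as TGI.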

Tests used:
Assay in all cases: DTP human tumour cell line panel, 48 h
OVCAR-4 ovarian = test system: OVCAR-4 ovarian
MOLT-4 leukemia = test system: MOLT-4 leukemia
786-0 renal = test system: 786-0 renal
HCT-15 colon = test system: HCT-15 colon
COLO 205 colon = test system: COLO 205 colon
OVCAR-8 ovarian = test system: OVCAR-8 ovarian
NCI-H522 lung = test system: NCI-H522 lung
NCI-H460 lung = test system: NCI-H460 lung
CCRF-CEM leukemia = test system: CCRF-CEM leukemia
K-562 leukemia = test system: K-562 leukemia
TK-10 renal = test system: TK-10 renal
MDA-MB-231 breast = test system: MDA-MB-231 breast
UACC-257 melanoma = test system: UACC-257 melanoma
UACC-62 melanoma = test system: UACC-62 melanoma
MDA-MB-435 = test system: MDA-MB-435
HT29 colon = test system: HT29 colon
SW-620 colon = test system: SW-620 colon
SNB-75 CNS = test system: SNB-75 CNS
HL-60(TB) leukemia = test system: HL-60(TB) leukemia

`CC(C)C(C)C(O)C(O)C(C)C1CCC2C3COC(=O)C4CC(O)C(O)CC4(C)C3CCC12C` (stereo not drawn) was tested, and the TGI (OVCAR-4 ovarian) was > 100 µM, the TGI (MOLT-4 leukemia) was 59.1 µM and the TGI (786-0 renal) was > 100 µM. The TGI (HCT-15 colon) was > 100 µM, the TGI (COLO 205 colon) was > 100 µM and the TGI (OVCAR-8 ovarian) was > 100 µM. The TGI (NCI-H522 lung) was > 100 µM, the TGI (NCI-H460 lung) was > 100 µM and the TGI (CCRF-CEM leukemia) was 67.5 µM. For the same compound, the TGI (K-562 leukemia) was > 100 µM, the TGI (TK-10 renal) was > 100 µM and the TGI (MDA-MB-231 breast) was > 100 µM. The TGI (UACC-257 melanoma) was > 100 µM, the TGI (UACC-62 melanoma) was > 100 µM and the TGI (MDA-MB-435) was > 100 µM. For the same compound, the TGI (HT29 colon) was > 100 µM and the TGI (SW-620 colon) was > 100 µM.
`COc1cccc([C@@H]2C/C(=N\NC(=O)C(=O)N[C@@H](C)c3ccccc3)c3cc4c(cc3N2)OCO4)c1` was tested, and the TGI (OVCAR-4 ovarian) was > 100 µM, the TGI (MOLT-4 leukemia) was > 100 µM and the TGI (SNB-75 CNS) was > 100 µM. For the same compound, the TGI (786-0 renal) was > 100 µM, the TGI (HCT-15 colon) was > 100 µM and the TGI (COLO 205 colon) was 68.8 µM. For the same compound, the TGI (CCRF-CEM leukemia) was > 100 µM, the TGI (K-562 leukemia) was > 100 µM and the TGI (TK-10 renal) was > 100 µM. For the same compound, the TGI (MDA-MB-231 breast) was > 100 µM, the TGI (UACC-257 melanoma) was > 100 µM and the TGI (UACC-62 melanoma) was > 100 µM. The TGI (MDA-MB-435) was 17.2 µM and the TGI (SW-620 colon) was > 100 µM.
Work on `COC(=O)C12OCC34C(CC5C(C)C6=CC(=O)OC6=CC5(C)C3C(O)C1O)OC(=O)C(OC(C)=O)C24` (stereo not drawn) yielded a TGI (OVCAR-4 ovarian) of 41.2 µM, a TGI (MOLT-4 leukemia) of 45.6 µM and a TGI (HL-60(TB) leukemia) of 33.3 µM. For the same compound, the GI50 (SNB-75 CNS) was 14.7 µM, the TGI (SNB-75 CNS) was 42.1 µM and the TGI (786-0 renal) was 29.1 µM. For the same compound, the TGI (HCT-15 colon) was 42.5 µM, the TGI (COLO 205 colon) was 22.6 µM and the TGI (OVCAR-8 ovarian) was 34.1 µM. The TGI (NCI-H522 lung) was 24.6 µM, the TGI (NCI-H460 lung) was 51.8 µM and the TGI (CCRF-CEM leukemia) was 32.4 µM. For the same compound, the TGI (K-562 leukemia) was 54.3 µM, the TGI (TK-10 renal) was 31.4 µM and the TGI (UACC-257 melanoma) was 30 µM. For the same compound, the TGI (UACC-62 melanoma) was 21.9 µM, the TGI (HT29 colon) was 33.9 µM and the TGI (SW-620 colon) was 26.2 µM.
Work on `ClCCN(CC#CCCCC#CCN(CCCl)CCCl)CCCl` yielded a TGI (OVCAR-4 ovarian) of 61.2 µM, a TGI (MOLT-4 leukemia) of 6.59 µM and a TGI (HL-60(TB) leukemia) of 7.18 µM. For the same compound, the TGI (SNB-75 CNS) was 36.4 µM, the TGI (786-0 renal) was 20.7 µM and the TGI (HCT-15 colon) was 27.2 µM. For the same compound, the TGI (COLO 205 colon) was 30.3 µM, the TGI (OVCAR-8 ovarian) was 23.9 µM and the TGI (NCI-H522 lung) was 21.7 µM. The TGI (NCI-H460 lung) was 16.3 µM, the TGI (CCRF-CEM leukemia) was 10.6 µM and the TGI (K-562 leukemia) was 37.7 µM. For the same compound, the TGI (TK-10 renal) was 41 µM, the TGI (UACC-257 melanoma) was 29.2 µM and the TGI (UACC-62 melanoma) was 20 µM. It also gave a TGI (HT29 colon) of 24.8 µM and a TGI (SW-620 colon) of 23.3 µM.
With `Cc1ccc([N+]2=NC(c3ccc([N+](=O)[O-])cc3)=NN(c3ccccc3)C2)cc1` the TGI (OVCAR-4 ovarian) was 49 µM, the TGI (MOLT-4 leukemia) was > 100 µM and the TGI (HL-60(TB) leukemia) was > 100 µM. For the same compound, the TGI (786-0 renal) was > 100 µM, the TGI (HCT-15 colon) was > 100 µM and the TGI (COLO 205 colon) was > 100 µM. For the same compound, the TGI (OVCAR-8 ovarian) was > 100 µM, the TGI (NCI-H522 lung) was 39 µM and the TGI (NCI-H460 lung) was > 100 µM. The TGI (CCRF-CEM leukemia) was > 100 µM, the TGI (K-562 leukemia) was > 100 µM and the TGI (TK-10 renal) was > 100 µM. For the same compound, the TGI (UACC-257 melanoma) was > 100 µM, the TGI (HT29 colon) was > 100 µM and the TGI (SW-620 colon) was > 100 µM.
With `Clc1ccc(/C=c2\nc(-c3ccccc3)n3c2nc2ccccc23)cc1` the TGI (OVCAR-4 ovarian) was > 100 µM, the TGI (MOLT-4 leukemia) was > 100 µM and the TGI (HL-60(TB) leukemia) was > 100 µM. For the same compound, the TGI (786-0 renal) was > 100 µM, the TGI (HCT-15 colon) was > 100 µM and the TGI (COLO 205 colon) was > 100 µM. For the same compound, the TGI (OVCAR-8 ovarian) was > 100 µM, the TGI (NCI-H460 lung) was > 100 µM and the TGI (CCRF-CEM leukemia) was > 100 µM. The TGI (K-562 leukemia) was > 100 µM, the TGI (TK-10 renal) was > 100 µM and the TGI (MDA-MB-231 breast) was > 100 µM. The TGI (UACC-257 melanoma) was > 100 µM, the TGI (UACC-62 melanoma) was > 100 µM and the TGI (MDA-MB-435) was > 100 µM. For the same compound, the TGI (HT29 colon) was > 100 µM and the TGI (SW-620 colon) was > 100 µM.
For `O=C(O)COc1cc(-c2ccccc2F)nc2cc3c(cc12)OCO3`, the TGI (MOLT-4 leukemia) was > 100 µM, the TGI (SNB-75 CNS) was > 100 µM and the TGI (786-0 renal) was > 100 µM. The TGI (HCT-15 colon) was > 100 µM, the TGI (COLO 205 colon) was > 100 µM and the TGI (OVCAR-8 ovarian) was > 100 µM. For the same compound, the TGI (CCRF-CEM leukemia) was > 100 µM, the TGI (K-562 leukemia) was > 100 µM and the TGI (TK-10 renal) was > 100 µM. For the same compound, the TGI (MDA-MB-231 breast) was > 100 µM, the TGI (UACC-257 melanoma) was > 100 µM and the TGI (UACC-62 melanoma) was > 100 µM. For the same compound, the TGI (MDA-MB-435) was > 100 µM, the TGI (HT29 colon) was > 100 µM and the TGI (SW-620 colon) was > 100 µM.
